Reference: ChEMBL document CHEMBL3044884, “Effect of 6-methoxybenzoxazolin-2-one (MBOA) on the reproduction rate of the grain aphid (Sitobion avenae F.)” (2006)

Columns and labels:
Format in all cases: functional
Sitobion avenae [1] = assay: Insecticidal activity against 1 to 3 day old Sitobion avenae apterous virginoparous nymphs raised on artificial diet exposed to compound at 8 mM assessed as intrinsic reproduction rate of increase measured after 4 weeks (reference value: 0.00162 intrinsic reproduction rate of increase)
Sitobion avenae [2] = assay: Insecticidal activity against 1 to 3 day old Sitobion avenae apterous virginoparous nymphs raised on artificial diet exposed to compound at 0.5 mM assessed as intrinsic reproduction rate of increase measured after 4 weeks (reference value: 0.00162 intrinsic reproduction rate of increase)
Sitobion avenae [3] = assay: Insecticidal activity against 1 to 3 day old Sitobion avenae apterous virginoparous nymphs raised on artificial diet exposed to compound at 0.3 mM assessed as intrinsic reproduction rate of increase measured after 4 weeks (reference value: 0.00162 intrinsic reproduction rate of increase)
Sitobion avenae [4] = assay: Insecticidal activity against 1 to 3 day old Sitobion avenae apterous virginoparous nymphs raised on artificial diet exposed to compound at 0.1 mM assessed as intrinsic reproduction rate of increase measured after 4 weeks (reference value: 0.00162 intrinsic reproduction rate of increase)
Sitobion avenae [5] = assay: Insecticidal activity against 1 to 3 day old Sitobion avenae apterous virginoparous nymphs raised on artificial diet exposed to compound at 0.2 mM assessed as intrinsic reproduction rate of increase measured after 4 weeks (reference value: 0.00162 intrinsic reproduction rate of increase)
Sitobion avenae [6] = assay: Insecticidal activity against 1 to 3 day old Sitobion avenae apterous virginoparous nymphs raised on artificial diet exposed to compound at 0.05 mM assessed as intrinsic reproduction rate of increase measured after 4 weeks (reference value: 0.00162 intrinsic reproduction rate of increase)

COc1ccc2[nH]c(=O)oc2c1 [COIXOL]
Activity (Sitobion avenae [1]): 0
Activity (Sitobion avenae [2]): 0.00048
Activity (Sitobion avenae [3]): 0.00075
Activity (Sitobion avenae [4]): 0.00296
Activity (Sitobion avenae [5]): 0.00139
Activity (Sitobion avenae [6]): 0.0015
